We go through two molecules from paper PMC9103758 (International Journal of Molecular Sciences, 2022).

Data set [1] deals with ATP-induced intracellular calcium signaling in FRT cells. Description: Intracellular calcium measurement (Fluo-4) in FRT cells. It is filed as cell-based, rat. The conditions noted are these: dose-dependent, 100 μM ATP. The method, then:
(§1) (A) Representative Fluo4 fluorescence traces from 3 independent experiments in FRT cells. […] (B,C) Representative apical membrane currents from 3–4 independent experiments in FRT cells expressing human ANO1. […] (D) Representative YFP fluorescence traces in FRT cells expressing human ANO2. […] (E) Representative Fluo4 fluorescence traces from 3 independent experiments in FRT cells. Cells were pretreated with DCPIB for 10 min followed by application of 100 μM ATP. (F) Representative apical membrane currents in FRT cells expressing human ANO1.
FRT cells were plated on 96-well black-walled microplates and loaded with Fluo-4 NW according to the manufacturer’s protocol (Invitrogen, Carlsbad, CA, USA). […] The 96-well plates were transferred to a plate reader for fluorescence assay.

A further data set deals with hERG. The conditions noted are these: 10 μM, Xenopus oocytes overexpressed with hERG; cited from earlier work. A general note: hERG is a cardiac potassium channel; its block is linked to QT prolongation.
The next data set deals with T1, ANO1 (Homo sapiens, UniProt Q5XXA6, DEL476-501).
T1 construct: expressed in transfected cells; host or cells: Fisher rat thyroid (FRT) cells; The YFP assay uses FRT-ANO1-YFP cells, which also carry the halide sensor
T1 sequence (Q5XXA6 with tags, fused parts or gaps isoform Q5XXA6-5 DEL539-564): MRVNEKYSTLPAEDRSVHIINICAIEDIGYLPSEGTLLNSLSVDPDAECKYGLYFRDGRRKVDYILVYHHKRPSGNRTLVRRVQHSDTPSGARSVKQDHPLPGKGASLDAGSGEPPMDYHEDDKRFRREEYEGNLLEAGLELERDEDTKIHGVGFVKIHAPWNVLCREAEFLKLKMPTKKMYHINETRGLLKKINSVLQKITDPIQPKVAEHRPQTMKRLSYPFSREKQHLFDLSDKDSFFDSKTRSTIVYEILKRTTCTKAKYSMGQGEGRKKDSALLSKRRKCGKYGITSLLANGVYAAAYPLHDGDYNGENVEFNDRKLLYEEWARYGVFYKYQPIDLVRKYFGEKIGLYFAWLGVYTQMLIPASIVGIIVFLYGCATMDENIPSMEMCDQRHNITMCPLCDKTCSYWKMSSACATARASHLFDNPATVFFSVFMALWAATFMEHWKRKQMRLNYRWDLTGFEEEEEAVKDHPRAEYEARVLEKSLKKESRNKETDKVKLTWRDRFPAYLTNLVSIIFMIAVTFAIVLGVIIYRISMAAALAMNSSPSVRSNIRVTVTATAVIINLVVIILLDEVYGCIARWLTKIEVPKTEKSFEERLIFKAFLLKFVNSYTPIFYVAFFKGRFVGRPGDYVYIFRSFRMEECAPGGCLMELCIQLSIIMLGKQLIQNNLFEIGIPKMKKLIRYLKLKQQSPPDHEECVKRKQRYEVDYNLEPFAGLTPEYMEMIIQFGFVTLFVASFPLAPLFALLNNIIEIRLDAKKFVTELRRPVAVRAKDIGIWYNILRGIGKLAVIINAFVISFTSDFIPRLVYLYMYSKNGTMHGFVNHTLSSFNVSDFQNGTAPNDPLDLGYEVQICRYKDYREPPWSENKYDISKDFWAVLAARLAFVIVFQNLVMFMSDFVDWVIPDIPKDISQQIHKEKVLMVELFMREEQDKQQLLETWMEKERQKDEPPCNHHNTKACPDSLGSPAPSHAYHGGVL
Nature of the data set: Apical membrane current of ANO1 in FRT cells expressing human ANO1. The conditions noted are these: 3 μM Eact. Type of data set: cell-based. On the procedure: as §1
(§2) Snapwell inserts containing ANO1(abc) or CFTR-expressing FRT cells were mounted in Ussing chambers (Physiological Instruments, San Diego, CA). The basolateral hemichamber was filled with buffer solution (in mM): 120 NaCl, 5 KCl, 1 MgCl2, 1 CaCl2, 10 D-glucose, 2.5 HEPES, and 25 NaHCO3 (pH 7.4). The apical hemichamber was filled with buffer solution (in mM): 60 NaCl, 60 Na-gluconate, 5 KCl, 1 MgCl2, 1 CaCl2, 10 D-glucose, 2.5 HEPES, and 25 NaHCO3 (pH 7.4). FRT cells were bathed for a 10 min stabilization period and gassed with 5% CO2 and 95% O2 at 37 °C. The apical membrane current was recorded with an EVC4000 Multi-Channel V/I Clamp (World Precision Instruments, Sarasota, FL, USA) and a PowerLab 4/35 (AD Instruments, Castle Hill, Australia).

The target in another data set is T2, human CFTR (Homo sapiens, UniProt P13569).
T2 construct: expressed in transfected cells; host or cells: Fisher rat thyroid (FRT) cells
Description: Apical membrane current of CFTR in FRT cells expressing human CFTR. Type of data set: cell-based. The conditions noted are these: apical membrane current, FRT cells expressing human CFTR, 20 μM forskolin, n = 5; read-out: CFTR chloride channel IC50.
Source text: […]. (C) Summary of dose-response (mean ± S.E., n = 5). […]. (F) Summary of dose−response (mean ± S.E., n = 6).
as §2

The test system of the next data set is NIH-3T3 cells. Nature of the data set: Cell viability (MTS/MTT) in NIH-3T3 cells. It is filed as cell-based. Particulars: 24 h, up to/at 30 μM. On the procedure: […]. (A) Structure of VI-116. (B) Representative YFP fluorescence traces. The inhibitory effects of VI-116 on VRAC activity were determined using YFP fluorescence assay in LN215 cells. VRAC was activated by application of […] solution for 5 min. (C) Summary of VRAC dose-response (mean ± S.E., n = 4). (D) Summary of VRAC dose−response with 10% FBS (mean ± S.E., n = 4). […].
NIH-3T3 cells were plated on 96-well microplates. After 24 h incubation, cells were treated with VI-116 or DCPIB and incubated for 24 h. The culture medium and the compounds were changed every 12 h. To assess cell proliferation, the cells were incubated with MTS for 1 h. The soluble formazan produced by the cellular reduction of MTS was quantified by measuring the absorbance at 490 nm with an Infinite M200 (Tecan, Grödig, Austria) microplate reader. MTS assay was performed using a CellTiter 96 Aqueous One Solution Cell Proliferation Assay kit (Promega, Madison, WI, USA).

The target in a further data set is T3, hERG K+ channel (Homo sapiens, UniProt Q12809).
T3 construct: expressed in transfected cells; called HEK293
Nature of the data set: FluxOR thallium flux assay in HEK293T cells expressing hERG. It is filed as cell-based. On the procedure: (C) Summary of dose-response (mean ± S.E., n = 5). […] (F) Summary of dose−response (mean ± S.E., n = 6).
HEK293 cells stably expressing human Kv11.1 (hERG) were cultured in 96-well plates. After 48 h, the cells were incubated at 28 °C for 4 h to increase the membrane expression of hERG. The culture medium was replaced with a 80 μL/well of FluxOR (Invitrogen, Waltham, MA, USA) loading buffer and incubated for 1 h at 37 °C in the dark. After removing the loading buffer, 100 μL of assay buffer was added to each well. […] FluxOR fluorescence (excitation/emission: 490/525 nm) was recorded for 4 s before the addition of 20 μL of stimulus buffer containing thallium ions, and the fluorescence was recorded. FluxOR fluorescence was recorded and analyzed using the FLUOstar Omega microplate reader (BMG Labtech, Ortenberg, Germany) and the MARS Data Analysis Software (BMG Labtech, Ortenberg, Germany). All buffers were prepared according to the manufacturer’s instructions.

Data set [2] concerns calcium-activated chloride currents in calf pulmonary artery endothelial (CPAE) cells. Particulars: cited from earlier work.
For a further data set, the target named is T4, human ANO2 (Homo sapiens, UniProt Q9NQ90).
T4 construct: expressed in transfected cells; host or cells: Fisher rat thyroid (FRT) cells
T4 sequence (Q9NQ90 1-998): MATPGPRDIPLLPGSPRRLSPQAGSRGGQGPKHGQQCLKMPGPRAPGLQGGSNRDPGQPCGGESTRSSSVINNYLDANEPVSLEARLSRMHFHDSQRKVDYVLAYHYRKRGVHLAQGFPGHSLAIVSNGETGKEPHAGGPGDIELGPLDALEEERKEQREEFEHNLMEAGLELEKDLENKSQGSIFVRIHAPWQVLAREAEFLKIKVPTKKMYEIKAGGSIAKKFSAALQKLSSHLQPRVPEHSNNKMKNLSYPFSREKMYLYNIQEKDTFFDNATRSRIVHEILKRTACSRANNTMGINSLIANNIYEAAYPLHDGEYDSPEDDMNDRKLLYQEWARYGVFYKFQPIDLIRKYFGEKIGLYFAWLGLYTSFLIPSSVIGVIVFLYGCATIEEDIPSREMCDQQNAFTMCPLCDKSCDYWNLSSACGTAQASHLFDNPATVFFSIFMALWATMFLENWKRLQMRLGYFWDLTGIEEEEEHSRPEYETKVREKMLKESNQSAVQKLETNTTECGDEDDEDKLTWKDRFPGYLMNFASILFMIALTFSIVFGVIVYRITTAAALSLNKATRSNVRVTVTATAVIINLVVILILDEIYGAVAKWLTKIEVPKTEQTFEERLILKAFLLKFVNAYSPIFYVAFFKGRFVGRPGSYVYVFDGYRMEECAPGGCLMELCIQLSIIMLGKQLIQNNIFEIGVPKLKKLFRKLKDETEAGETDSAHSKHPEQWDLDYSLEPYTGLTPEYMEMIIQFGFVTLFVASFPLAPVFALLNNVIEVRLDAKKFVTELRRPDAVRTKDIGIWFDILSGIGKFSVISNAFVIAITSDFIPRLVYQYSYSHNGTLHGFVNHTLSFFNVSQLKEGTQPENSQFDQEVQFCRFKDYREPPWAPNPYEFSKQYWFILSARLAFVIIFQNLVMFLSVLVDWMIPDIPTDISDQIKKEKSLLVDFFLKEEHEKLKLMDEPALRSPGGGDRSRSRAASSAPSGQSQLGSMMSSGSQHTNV
Nature of the data set: YFP fluorescence quenching assay in FRT cells expressing human ANO2. It is filed as cell-based. The conditions noted are these: 30 μM, ANO2 activated by 100 μM ATP.

Entries after “also recorded” stand apart in the source; their conditions may differ.

T3 sequence (Q12809 whole entry): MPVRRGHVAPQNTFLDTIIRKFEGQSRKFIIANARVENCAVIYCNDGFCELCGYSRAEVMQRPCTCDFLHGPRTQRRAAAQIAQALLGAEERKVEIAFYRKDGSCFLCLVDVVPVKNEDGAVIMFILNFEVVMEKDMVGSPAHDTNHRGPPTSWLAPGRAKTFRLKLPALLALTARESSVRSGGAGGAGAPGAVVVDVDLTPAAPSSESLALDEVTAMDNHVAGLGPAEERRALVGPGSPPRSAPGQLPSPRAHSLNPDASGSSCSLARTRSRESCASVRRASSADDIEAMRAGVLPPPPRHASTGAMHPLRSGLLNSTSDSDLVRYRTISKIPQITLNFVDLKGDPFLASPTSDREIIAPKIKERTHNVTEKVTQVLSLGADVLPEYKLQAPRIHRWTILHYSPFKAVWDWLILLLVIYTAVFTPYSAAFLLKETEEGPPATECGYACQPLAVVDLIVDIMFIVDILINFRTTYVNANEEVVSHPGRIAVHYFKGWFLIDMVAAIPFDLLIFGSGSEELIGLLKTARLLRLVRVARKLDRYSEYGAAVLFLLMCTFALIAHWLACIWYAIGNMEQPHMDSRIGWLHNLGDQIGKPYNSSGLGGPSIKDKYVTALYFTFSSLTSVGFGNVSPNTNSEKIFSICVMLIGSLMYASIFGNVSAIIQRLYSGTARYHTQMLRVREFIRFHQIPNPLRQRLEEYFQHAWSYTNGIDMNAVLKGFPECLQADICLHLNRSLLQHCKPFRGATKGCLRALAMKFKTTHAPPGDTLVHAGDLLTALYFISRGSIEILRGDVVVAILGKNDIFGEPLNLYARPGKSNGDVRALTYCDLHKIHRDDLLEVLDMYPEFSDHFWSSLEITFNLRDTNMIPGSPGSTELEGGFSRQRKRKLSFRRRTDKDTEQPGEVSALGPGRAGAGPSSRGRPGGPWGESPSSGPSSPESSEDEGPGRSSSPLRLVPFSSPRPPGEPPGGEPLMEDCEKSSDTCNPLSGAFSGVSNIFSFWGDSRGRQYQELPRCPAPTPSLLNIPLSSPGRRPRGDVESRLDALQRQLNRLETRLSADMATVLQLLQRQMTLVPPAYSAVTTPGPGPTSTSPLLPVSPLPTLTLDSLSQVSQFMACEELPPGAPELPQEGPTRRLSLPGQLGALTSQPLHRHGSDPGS
T2 sequence (P13569 whole entry): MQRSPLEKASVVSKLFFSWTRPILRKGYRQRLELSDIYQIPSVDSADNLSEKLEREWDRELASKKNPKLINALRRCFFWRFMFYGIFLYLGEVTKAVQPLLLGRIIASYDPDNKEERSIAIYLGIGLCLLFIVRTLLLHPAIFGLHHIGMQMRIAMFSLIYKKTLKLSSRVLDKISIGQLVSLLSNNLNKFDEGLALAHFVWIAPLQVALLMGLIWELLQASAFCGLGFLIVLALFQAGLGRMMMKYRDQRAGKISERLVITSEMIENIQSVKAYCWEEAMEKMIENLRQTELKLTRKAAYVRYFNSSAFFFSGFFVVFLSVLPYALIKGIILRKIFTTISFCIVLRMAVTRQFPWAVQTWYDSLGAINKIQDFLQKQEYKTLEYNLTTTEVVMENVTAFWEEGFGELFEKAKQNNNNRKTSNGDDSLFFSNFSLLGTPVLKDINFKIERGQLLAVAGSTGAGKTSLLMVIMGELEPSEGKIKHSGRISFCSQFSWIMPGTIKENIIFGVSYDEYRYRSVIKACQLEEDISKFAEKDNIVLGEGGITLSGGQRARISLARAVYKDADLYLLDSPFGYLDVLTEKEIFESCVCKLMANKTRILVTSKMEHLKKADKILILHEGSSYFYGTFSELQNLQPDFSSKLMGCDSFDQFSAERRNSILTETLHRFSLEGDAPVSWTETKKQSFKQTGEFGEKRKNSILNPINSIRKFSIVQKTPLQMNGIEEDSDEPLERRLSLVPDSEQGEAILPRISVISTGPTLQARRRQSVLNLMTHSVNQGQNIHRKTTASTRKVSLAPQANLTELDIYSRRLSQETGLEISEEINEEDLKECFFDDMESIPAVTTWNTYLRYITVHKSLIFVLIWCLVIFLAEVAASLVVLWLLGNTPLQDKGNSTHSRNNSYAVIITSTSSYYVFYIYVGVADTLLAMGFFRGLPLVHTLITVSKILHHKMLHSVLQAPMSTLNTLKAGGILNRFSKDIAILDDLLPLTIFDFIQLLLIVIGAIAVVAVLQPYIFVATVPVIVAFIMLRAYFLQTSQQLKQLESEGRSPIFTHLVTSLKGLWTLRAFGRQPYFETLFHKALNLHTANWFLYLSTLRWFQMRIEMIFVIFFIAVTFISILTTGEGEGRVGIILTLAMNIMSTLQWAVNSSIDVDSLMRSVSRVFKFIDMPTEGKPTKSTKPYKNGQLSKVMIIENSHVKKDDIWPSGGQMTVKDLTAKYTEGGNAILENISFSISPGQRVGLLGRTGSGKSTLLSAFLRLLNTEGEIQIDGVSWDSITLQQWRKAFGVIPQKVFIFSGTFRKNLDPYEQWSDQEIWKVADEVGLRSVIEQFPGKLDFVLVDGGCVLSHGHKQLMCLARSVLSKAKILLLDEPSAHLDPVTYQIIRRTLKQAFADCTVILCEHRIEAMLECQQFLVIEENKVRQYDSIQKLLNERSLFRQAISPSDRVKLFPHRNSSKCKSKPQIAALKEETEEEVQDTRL
Description for human ANO2: ANO2 activity was measured using YFP fluorescence quenching assay in FRT cells expressing human ANO2.

For the molecule `CCCCC1(C2CCCC2)Cc2cc(OCCCC(=O)O)c(Cl)c(Cl)c2C1=O` (stereo not shown) [DCPIB, 4-(2-butyl-6,7-dichlor-2-cyclopentylindan-1-on-5-yl) oxobutyric acid], the “effect on ATP-induced intracellular calcium increase” value in data set [1] is given as “significantly affected; also recorded: strongly blocked; also recorded: potently blocked; also recorded: potently inhibited”. In the data set with hERG, the “effect on hERG” value is given as “did not inhibit”. In addition, the “effect on Eact-activated ANO1 chloride current” value at ANO1 (10 μM) is “increased”; at ANO1 (100 μM), “almost completely inhibited”. In addition, the IC50 on human CFTR came out at 71.7 µM; against hERG K+ channel (thallium flux, HEK293T cells expressing hERG, n = 6), 11.4 µM. Besides, the “effect on cell viability” value in the data set with NIH-3T3 cells is reported as “significantly reduced cell viability”. At hERG K+ channel (10 μM), the “effect on hERG K+ channel activity” value is “significantly blocked”. Further, the “effect on calcium-activated chloride currents” value in data set [2] is recorded as “did not affect”.

With `CCc1c(C)nc(SCC(=O)Nc2nc(-c3ccc(OC)cc3)cs2)[nH]c1=O` [T16Ainh-A01, reference compound], at human ANO2, the “block of ANO2” value is “completely blocked”.

One may read the IC50 as the concentration at which inhibition is half-maximal.
